Data on 11 compounds can be found in ChEMBL document CHEMBL1201862, “PubChem BioAssay data set” (2004).

Some test systems named below: HCT-116; SK-MEL-28; A498; MOLT-4; SNB-19; RXF 393; OVCAR-4; KM12; TK-10; SNB-75; UACC-257; T47D; M14; NCI-H226; HCT-15; NCI-H460; 786-0; HCC 2998; UACC-62; BT-549.
Holding throughout (assay): DTP human tumour cell line panel, 48 h

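48-hour exposure; five concentrations; linearly interpolated endpoints. GI50 = concentration required for 50% inhibition of growth.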 Calls of active or inactive are those of the source. No stated cut-off is given here; in the data, active = GI50 up to about 1.1 µM and inactive = higher. Peptide text beside a SMILES is read from it. * marks the point of attachment. Boc = CC(C)(C)OC(=O)*; OBn = c1ccc(CO*)cc1

`CCN(CC)CCCNc1[nH]c2ccccc2c2nc3ccc(OC)cc3c1-2`: the GI50 – broadly, the concentration at which growth is held to half of that of the control – is 0.618 µM (active) with HCT-116; 1.69 µM (inactive) with SK-MEL-28; 2.12 µM (inactive) in the experiment on A498; 0.279 µM (active) in the experiment with MOLT-4; 1.59 µM (inactive) in the experiment with SNB-19; 1.59 µM (inactive) in the experiment with RXF 393. Besides, the GI50 is 1.21 µM (inactive) in the experiment on OVCAR-4; 0.695 µM (active) in the experiment with KM12; 2.31 µM (inactive) in the experiment on TK-10; 1.77 µM (inactive) in the experiment with SNB-75; 1.79 µM (inactive) with UACC-257; 10 µM (inactive) with T47D. In addition, the GI50 with M14 was 1.71 µM (inactive); in the experiment with NCI-H226, 3.4 µM (inactive); in the experiment on HCT-15, 1.21 µM; with NCI-H460, 0.367 µM (active); with 786-0 it was 1.16 µM (inactive); in the experiment with HCC 2998, 1.12 µM (inactive). For the same compound, in the experiment with UACC-62, the GI50 is 4.68 µM (inactive).

For the compound `COCCCNC(=O)C1=C(C)NC(C)=C(C(=O)NCCCOC)C1`, the GI50 in the experiment with HCT-116, in the experiment with SK-MEL-28, in the experiment on A498, in the experiment on MOLT-4, with SNB-19 and with RXF 393 was > 100 µM (inactive) throughout. The GI50 in the experiment with OVCAR-4 is > 100 µM (inactive); in the experiment on KM12, > 100 µM (inactive); in the experiment on TK-10, > 100 µM (inactive); in the experiment with SNB-75, 21 µM (inactive); in the experiment on UACC-257, > 100 µM (inactive); with T47D, > 100 µM (inactive). Moreover, the GI50 in the experiment on M14, in the experiment on NCI-H226, with NCI-H460, in the experiment with 786-0, in the experiment with HCC 2998 and in the experiment with UACC-62 was > 100 µM (inactive) each time.

As for `O=C(NCc1ccccc1Cl)c1c(O)c2ccccc2[nH]c1=O`, the GI50 was 27.2 µM (inactive) in the experiment with HCT-116; > 100 µM (inactive) with SK-MEL-28; 15.9 µM (inactive) in the experiment on A498; > 100 µM (inactive) with MOLT-4; 39.4 µM (inactive) with SNB-19; 21.2 µM (inactive) in the experiment with RXF 393. Besides, the GI50 with OVCAR-4 was 8.53 µM (inactive); in the experiment on KM12, > 100 µM (inactive); in the experiment with TK-10, 56.4 µM (inactive); in the experiment with SNB-75, 21.6 µM (inactive); in the experiment with UACC-257 it was > 100 µM (inactive); with NCI-H226, 44.7 µM (inactive). The GI50 with HCT-15 was 42.8 µM; with NCI-H460 it was 18.7 µM (inactive); in the experiment with 786-0, 16.8 µM (inactive); in the experiment on HCC 2998, 33.3 µM (inactive); in the experiment on BT-549, 34.9 µM (inactive).

As to `O=P(c1ccccc1)(c1ccccc1)C(NCc1ccccc1)c1ccc(F)cc1` (configuration not stated), the GI50 with HCT-116 is 12.8 µM (inactive); with SK-MEL-28 it was 15.1 µM (inactive); in the experiment on A498, 15.2 µM (inactive); in the experiment on MOLT-4 it was 14.2 µM (inactive); in the experiment with SNB-19 it was 17.9 µM (inactive); with RXF 393, 13.4 µM (inactive). The GI50 in the experiment on OVCAR-4 is 20.3 µM (inactive); with KM12 it was 13.2 µM (inactive); with TK-10, 15.9 µM (inactive); in the experiment with SNB-75, 23.8 µM (inactive); in the experiment with UACC-257, 18 µM (inactive); in the experiment on T47D, 26.5 µM (inactive). In addition, the GI50 in the experiment on M14 is 14.7 µM (inactive); in the experiment with NCI-H226 it was 16.2 µM (inactive); in the experiment on HCT-15 it was 13.2 µM; with NCI-H460, 12.2 µM (inactive); in the experiment with 786-0 it was 18.5 µM (inactive); in the experiment on HCC 2998, 16.1 µM (inactive). For the same compound, the GI50 in the experiment on UACC-62 is 13 µM (inactive).

On to `O=C1NC2C(=CC(O)C(O)C2O)c2cc3c(cc21)OCO3` (configuration not stated), for which the GI50 was 0.15 µM (active) in the experiment on HCT-116; 0.417 µM (active) with SK-MEL-28; 0.759 µM (active) in the experiment on A498; 0.109 µM (active) in the experiment on MOLT-4; 0.244 µM (active) with SNB-19; 0.154 µM (active) in the experiment on RXF 393. Moreover, the GI50 is 0.338 µM (active) with OVCAR-4; 0.272 µM (active) in the experiment with KM12; 0.418 µM (active) in the experiment with TK-10; 0.568 µM (active) in the experiment on SNB-75; 0.695 µM (active) with UACC-257; 0.0964 µM (active) in the experiment on T47D. Besides, the GI50 with M14 was 0.244 µM (active); in the experiment with NCI-H226 it was 0.504 µM (active); in the experiment on HCT-15 it was 0.52 µM; in the experiment with NCI-H460 it was 0.194 µM (active); in the experiment with 786-0, 0.245 µM (active); in the experiment with HCC 2998 it was 0.415 µM (active). Further, the GI50 with UACC-62 was 0.421 µM (active).

Turning to `CCOC(=O)C1C2CCC1CC(=NNc1ccc([N+](=O)[O-])cc1[N+](=O)[O-])C2` (configuration not stated), the GI50 in the experiment with HCT-116 was > 50 µM (inactive); with SK-MEL-28 it was > 50 µM (inactive); with MOLT-4, 31.4 µM (inactive); in the experiment on SNB-19, > 50 µM (inactive); with RXF 393, > 50 µM (inactive); with OVCAR-4, > 50 µM (inactive). The GI50 in the experiment with KM12 is 48.9 µM (inactive); in the experiment on TK-10, > 50 µM (inactive); with SNB-75, 18 µM (inactive); in the experiment on UACC-257 it was > 50 µM (inactive); with M14, > 50 µM (inactive); with NCI-H226, 37.4 µM (inactive). The GI50 in the experiment on HCT-15 is more than 50 µM; with NCI-H460 it was > 50 µM (inactive); in the experiment on 786-0 it was > 50 µM (inactive); in the experiment with HCC 2998, 45.1 µM (inactive); in the experiment on UACC-62 it was > 50 µM (inactive); in the experiment on BT-549, > 50 µM (inactive).

On to `CC(NC(=O)C(NC(=O)OC(C)(C)C)C(C)C)C(=O)N1CCCC1C(=O)NCC(=O)NC(C(=O)NCC(=O)OCc1ccccc1)C(C)C` (configuration not stated) (Boc-VAPGVG-OBn; configuration not given here), for which the GI50 with HCT-116 is > 100 µM (inactive); in the experiment with SK-MEL-28, > 100 µM (inactive); in the experiment on A498, > 100 µM (inactive); in the experiment on MOLT-4 it was > 10 µM (inactive); with SNB-19, > 100 µM (inactive); in the experiment on OVCAR-4, > 100 µM (inactive). The GI50 was > 100 µM (inactive) in the experiment on TK-10; 71.3 µM (inactive) in the experiment with SNB-75; > 100 µM (inactive) with UACC-257; > 100 µM (inactive) with T47D; > 100 µM (inactive) in the experiment on M14; more than 100 µM with HCT-15. The GI50 with NCI-H460 is > 100 µM (inactive); in the experiment with 786-0, > 100 µM (inactive); with HCC 2998 it was > 100 µM (inactive); in the experiment with UACC-62 it was 66.4 µM (inactive).

On to `Cc1c(/N=N/c2ccc(Cl)cc2)c(C)n(C2OC(CO)C(O)C(O)C2O)c(=S)c1C#N` (configuration not stated), for which the GI50 is 15.1 µM (inactive) in the experiment with HCT-116; 23.4 µM (inactive) in the experiment on SK-MEL-28; 13.9 µM (inactive) in the experiment on MOLT-4; > 100 µM (inactive) with SNB-19; 31.1 µM (inactive) with RXF 393; 16.5 µM (inactive) in the experiment with OVCAR-4. In addition, the GI50 in the experiment with KM12 is 24.8 µM (inactive); with TK-10, 28.6 µM (inactive); with SNB-75, 28 µM (inactive); with UACC-257, 24.2 µM (inactive); in the experiment on T47D, 32.7 µM (inactive); with M14 it was 20 µM (inactive). In addition, the GI50 is 25.3 µM (inactive) in the experiment on NCI-H226; 23.8 µM in the experiment on HCT-15; 25.8 µM (inactive) in the experiment on NCI-H460; 18.5 µM (inactive) with 786-0; 23.7 µM (inactive) in the experiment with HCC 2998; 3.25 µM (inactive) in the experiment with UACC-62.

Take `CC1(C)CC(C#Cc2ccccc2)CC(C)(C)N1O`: the GI50 in the experiment on HCT-116 was 20 µM (inactive); in the experiment on SK-MEL-28, 16.6 µM (inactive); in the experiment on MOLT-4, 46 µM (inactive); in the experiment on SNB-19 it was 30.5 µM (inactive); in the experiment with RXF 393 it was 19.5 µM (inactive); with OVCAR-4, 43.4 µM (inactive). Besides, the GI50 in the experiment with KM12 is 17.3 µM (inactive); with TK-10 it was 20.4 µM (inactive); in the experiment with SNB-75, 16.9 µM (inactive); in the experiment on UACC-257, 16.6 µM (inactive); in the experiment on T47D, 16 µM (inactive); in the experiment with M14 it was 19.1 µM (inactive). The GI50 with NCI-H226 was 20.9 µM (inactive); in the experiment on HCT-15, 14.9 µM; with NCI-H460, 18.3 µM (inactive); in the experiment with 786-0, 22.2 µM (inactive); with HCC 2998, 16.3 µM (inactive); in the experiment on UACC-62 it was 17.2 µM (inactive).

For `Cc1ccc2c(c1)CC1(Cc3c(C)cccc3C1=O)C2=O` (configuration not stated), the GI50 with HCT-116 was > 100 µM (inactive); in the experiment with SK-MEL-28 it was > 100 µM (inactive); in the experiment with A498 it was > 100 µM (inactive); in the experiment with MOLT-4, > 100 µM (inactive); in the experiment on SNB-19 it was 37.6 µM (inactive); in the experiment on RXF 393, > 100 µM (inactive). Further, the GI50 is > 100 µM (inactive) in the experiment with OVCAR-4; > 100 µM (inactive) in the experiment on KM12; > 100 µM (inactive) in the experiment on TK-10; 36.7 µM (inactive) in the experiment with SNB-75; > 100 µM (inactive) with UACC-257; > 100 µM (inactive) in the experiment on T47D. Further, the GI50 was > 100 µM (inactive) in the experiment on M14; > 100 µM (inactive) with NCI-H226; more than 100 µM in the experiment with HCT-15; > 100 µM (inactive) in the experiment on NCI-H460; > 100 µM (inactive) with 786-0; > 100 µM (inactive) in the experiment with HCC 2998. Moreover, in the experiment on UACC-62, the GI50 is 44.7 µM (inactive).

For the compound `O=C(CN1CCN(c2ccccc2)CC1)c1ccc2[nH]c(=O)oc2c1`, the GI50 in the experiment with HCT-116, in the experiment with SK-MEL-28, with A498, in the experiment with MOLT-4, in the experiment with RXF 393 and with KM12 was > 100 µM (inactive) each time. In addition, the GI50 with TK-10 was > 100 µM (inactive); with SNB-75, > 100 µM (inactive); with UACC-257, > 100 µM (inactive); in the experiment on M14, > 100 µM (inactive); in the experiment on NCI-H226 it was > 100 µM (inactive); in the experiment with HCT-15 it was more than 100 µM. In addition, the GI50 in the experiment with NCI-H460, in the experiment on 786-0, in the experiment with UACC-62 and in the experiment on BT-549 was > 100 µM (inactive) each time.
